The source of these data is publication PMC6007452 (Journal of Insect Science, 2018).

Data set [1] deals with T1, HaTreh-1 (soluble trehalase) (Helicoverpa armigera, UniProt A0A6B8YU37).
T1 sequence (A0A6B8YU37 24-571): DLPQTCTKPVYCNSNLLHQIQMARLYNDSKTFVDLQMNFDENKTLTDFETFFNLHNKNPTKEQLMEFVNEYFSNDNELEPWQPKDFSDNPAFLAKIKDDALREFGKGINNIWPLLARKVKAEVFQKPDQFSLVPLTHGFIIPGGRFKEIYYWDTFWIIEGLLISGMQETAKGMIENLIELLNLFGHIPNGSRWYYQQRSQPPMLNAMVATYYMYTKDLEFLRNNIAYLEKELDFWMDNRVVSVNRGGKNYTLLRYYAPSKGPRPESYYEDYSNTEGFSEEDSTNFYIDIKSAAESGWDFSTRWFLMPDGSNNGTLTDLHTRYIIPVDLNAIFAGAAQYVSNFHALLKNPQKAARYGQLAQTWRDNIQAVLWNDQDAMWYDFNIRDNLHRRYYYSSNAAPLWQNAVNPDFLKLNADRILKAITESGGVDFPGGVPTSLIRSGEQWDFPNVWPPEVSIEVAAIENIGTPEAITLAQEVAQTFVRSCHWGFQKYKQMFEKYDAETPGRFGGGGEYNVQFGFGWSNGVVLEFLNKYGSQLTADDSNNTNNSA
The format is biochemical.

Substrate in data set [2]: OC[C@H]1O[C@H](O[C@H]2O[C@H](CO)[C@@H](O)[C@H](O)[C@H]2O)[C@H](O)[C@@H](O)[C@@H]1O
Put plainly: enzyme kinetics. The class given is biochemical, Helicoverpa armigera.

In turn, `O[C@H]1[C@H](O)[C@@H](O)CN2CC[C@H](O)[C@H]12` [castanospermine] showed a Ki in data set [1] of 6.7 µM.

B1: HaTreh-1 (soluble trehalase) (Helicoverpa armigera) (protein)
chain: T1 sequence (A0A6B8YU37 24-571)
Regarding B1, in data set [2], the Michaelis constant (Km) worked out at 72.8 mM.
